Data set [1] in a line: In vitro cytotoxicity (CCK-8) in HepAD38 cells. The following applies: human. The class given is cell-based. The essentials:
(§1)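 HepG2.2.15 or HepAD38 cells plated at 2*10^5 cells/mL on collagen I-coated wells, grown 24 h, then exposed to compound for 6 days with medium refreshed every 3 days; 0.5% DMSO vehicle control. CCK-8 absorbance read at 450 nm after 1–2 h; inhibition rate and CC50 calculated.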

A short description of data set [2]: In vivo pharmacokinetics (PK) study in rats. Also noted: species or system SD rats. As to conditions: rat.
Data set [3] in a line: In vivo pharmacokinetic (PK) study in Beagle dog. Also noted: species or system Beagle dogs. As to the method:
Beagle dogs, weighing 9 to 11 kg, were randomly divided into two groups of 3 dogs each, compound 12 was given by intragastric administration to each group at a dose of 5 mg/kg.
The test animals (Beagle dogs) were fasted for 12 hours before the administration, and fed 4 hours after the administration. They were free to access water before and after the experiment.
After the intragastric administration, about 0.5 mL of whole blood was collected from the veins of the left forelimb in an EDTA-K2 anticoagulated vacuum blood collection tube at 0 min, 15 min, 30 min, 1 h, 2 h, 4 h, 6 h, 8 h, 10 h, 24 h, 48 h, and 72 h. Within 30 minutes after collection, the plasma was separated by centrifugation at 4° C. and 4000 rpm for 10 minutes. Immediately after collecting all plasma, it was stored at −20° C. for testing.
50 μL of the plasma sample to be tested and standard curve sample were pipetted, and then thereto was added 500 μL of an acetonitrile solution containing an internal standard (diazepam 20 mg/mL). The resulting mixture was oscillated and mixed uniformly for 5 min, and then centrifugated at 12000 rpm for 10 min, 75 μL of the supernatant was pipetted, and 75 μL of ultrapure water was added for dilution and mixed evenly. 1 μL of the resulting solution was pipetted for LC/MS/MS determination.

Data set [4] is described as follows: In vitro cytotoxicity (CCK-8) in HepG2.2.15 cells. The class given is cell-based. As to conditions: human. The essentials:
as §1

Data set [5] in a line: Stability of mouse liver microsomes in vitro. It is filed as in vitro ADME. As to the method: (§2) 300 μL of a final incubation system contains 30 μL of liver microsomes (protein concentration: 0.15 mg/mL), 30 μL NADPH+MgCl2, 3 μL substrate (formulated with acetonitrile), and 237 μL PBS buffer. Duplicate incubation systems of 0.3 mL each were formulated for each species. A total volume of 270 μL of a uniformly mixed solution of the substrate and the enzyme was formulated in each tube, the solution and NADPH were pre-incubated at 37° C. for 5 minutes, respectively. Then 30 μL of the mixed solution of NADPH+MgCl2 was added for reaction. 50 μL of the reaction solution was taken out at 0, 10, 30, and 60 mins, and the reaction was terminated with 300 μL of ice acetonitrile containing an internal standard.
(§3) Sample pre-treatment: To 50 μL of the incubated sample was added 300 μL of ice acetonitrile containing diazepam as an internal standard and then precipitated. After vortexing for 5 minutes, the sample was centrifugated (12000 rpm, 4° C.) for 10 minutes. 75 μL of the supernatant was pipetted into a 96-well plate, and then diluted with 75 μL ultrapure water and mixed uniformly. 0.5 μL of the resulting solution was injected and analyzed by LC-MS/MS.

A short description of data set [6]: Stability of human liver microsomes in vitro. It is filed as in vitro ADME. The method, then:
as §2, §3
For orientation: Liver microsomes are vesicles of endoplasmic reticulum, rich in cytochrome P450 enzymes.

Data set [7] in a line: In vivo pharmacokinetics (PK) study in rats. Further details: species or system SD rats. As to the method:
SD rats, weighing 180˜220 g, were randomly divided into groups of three […] each after 3 to 5 days' acclimatization, and a series of the compounds were administered intragastrically to each group at a dose of 20 mg/kg.
The test animals (SD rats) were fasted for 12 hours before administration and fed 4 hours after the administration. They were free to access water before and after the experiment.
After the administration, about 0.2 mL of blood from the orbits was collected at 0 min, 15 min, 30 min, 1 h, 2 h, 4 h, 6 h, 8 h, 10 h, 24 h, 30 h, and 48 h. Within 30 minutes after anticoagulation with EDTA-K2, the plasma was separated by centrifugation at 4° C. and 4000 rpm for 10 minutes. Immediately after collecting all plasma, it was stored at −20° C. for testing.
50 μL of the plasma sample to be tested and standard curve sample were pipetted, and then thereto was added 500 μL of an acetonitrile solution containing an internal standard (diazepam 20 mg/mL). The resulting mixture was oscillated and mixed uniformly for 5 min, and then centrifugated at 12000 rpm for 10 min. 75 μL supernatant was pipetted, and 75 μL ultrapure water was added thereto for dilution, and mixed evenly. 1 μL of the resulting solution was pipetted for LC/MS/MS determination.

[8] abbreviates: plasma, Beagle dogs, PO 5 mg/kg.
[9] abbreviates: rat, plasma, SD rats, PO 20 mg/kg.

Molecules are shown by their SMILES.

As usually defined, the CC50 is the concentration at which the toxic effect on the cells reaches its halfway point. A higher CC50 goes with better tolerance by the cells. Broadly, the half-life is how long it takes for the measured level to halve. The low end stands for fast loss, the high end for slow loss. Broadly, the AUC(0-inf) is the area under the concentration-time curve extrapolated to infinity. High values mean high exposure, low ones low exposure. Broadly, the Cmax is the peak of the concentration-time curve. The term clearance denotes the rate of elimination divided by the concentration. High values mean a high capacity for elimination, low ones a low capacity for elimination. In general, Tmax refers to the time from dosing to the highest level. In the case of `Cc1c(C(=O)Nc2ccc(F)c(C#N)c2)c(C)n(C)c1C(=O)C(=O)N[C@@H](C)C(F)(F)F` [Example 12], the CC50 at 6 days in data set [1] and in data set [4] was over 100 µM each time. Moreover, the half-life is 3.41 h in data set [2] (SD, in vivo, iv, 5 mg/kg); 105 h in data set [3] (Beagle, in vivo, po, 5 mg/kg); 3.65 h in data set [7] (SD, rat, in vivo, po, 20 mg/kg). Besides, the AUC(0-inf) in data set [2] (plasma, SD rats, IV 5 mg/kg) is 27100 ng·h/mL; in data set [3] (setting [8]) it was 162000 ng·h/mL; in data set [7] (setting [9]), 62300 ng·h/mL. The Cmax in data set [2] (plasma, SD rats, IV 5 mg/kg) was found to be 6270 ng/mL; in data set [3] (setting [8]) it was 1280 ng/mL; in data set [7] (setting [9]), 5020 ng/mL. In addition, the clearance in data set [2] (plasma, SD rats, IV 5 mg/kg) was 3.1 mL/min/kg. The AUC(0-t) in data set [2] (plasma, SD rats, IV 5 mg/kg, read-out: AUC(0-48 h)) came out at 27100 ng·h/mL; in data set [3] (plasma, Beagle dogs, PO 5 mg/kg, read-out: AUC(0-72 h)), 61900 ng·h/mL; in data set [7] (rat, plasma, SD rats, PO 20 mg/kg, read-out: AUC(0-48 h)), 62000 ng·h/mL. The Vd in data set [2] (plasma, SD rats, IV 5 mg/kg, read-out: Vz) was 0.914 L/kg. For the same compound, in data set [3] (setting [8]), the Tmax amounted to 1.67 h. In addition, in data set [3] (plasma, Beagle dogs, PO 5 mg/kg, read-out: MRT(0-t)), the MRT last was found to be 32.9 h. In addition, the entries for the “Remaining (%) at 60 min” value in data set [5] and in data set [6] were 67.1% and 78.8%, respectively. The compound also returned a F in data set [7] (SD rats, PO 20 mg/kg vs IV 5 mg/kg) of 57%.

With `Cc1c(C(=O)Nc2ccc(F)c(C#N)c2)c(C)n(C)c1C(=O)C(=O)NC1(C(F)(F)F)COC1` [Example 25, N-(3-cyano-4-fluorophenyl)-1,2,4-trimethyl-5-(2-oxo-2-((3-(trifluoromethyl)oxetan-3-yl)amino)acetyl)-1H-pyrrole-3-carboxamide], the CC50 at 6 days in data set [1] and in data set [4] was over 100 µM each time. Moreover, in data set [5], the “Remaining (%) at 60 min” value is 50.8%.

Source of the values: patent publication US12116356B2, “N-heterocyclic five-membered ring-containing capsid protein assembly inhibitor, pharmaceutical composition thereof, and use thereof” (CHIA TAI TIANQING PHARMACEUTICAL GROUP CO., LTD., priority 2018, dated 2024).
